Source: patent publication US6162826A, “Genipin derivative having anti hepatitis B virus activity” (priority 1996, dated 2000)
Where two headings read alike, the source gives them in different places.

Experiments:
[1] = test system: HBV replication; test: Inhibitory effect on HBV replication in 2.2.15 cell culture; assay type: cell-based, hepatitis B virus; conditions: for EC50: Hepatitis B virus, 216 h, read-out: ED50 (inhibitory effect on HBV replication); for SI (Selectivity Index, IC50/ED50): cytotoxicity IC50 / HBV ED50, 2.2.15 cell culture
Excerpt: Inhibitory effect on HBV replication was examined by the use of 2.2.15. cell. 2.2.15. cell line (see, Sells et al., Journal of Virology, 62, 2836-2844, 1988) is a hepatoma cell infected by hepatitis B virus and is a representative standard cell which accurately standardizes all the essential viral characteristics induced by a chronic HBV infection. That is, 2.2.15. cell has some merits such that DNA pattern is stable, replicated virus exists in high level, virus-specific RNA replicate and protein are present in an appropriate size and pattern, the penetrated HBV virion is excreted in high titer, etc. Therefore, it has been recognized as a very suitable cell line which can be used when the anti viral activity of any compound on HBV is evaluated (see, Korba and Milman, Antiviral Research, 15, p217-228, 1991).
First, the present inventors cultured 2.2.15. cell and treated the cell with the novel compound according to the present invention. Then, extraction of DNA and RNA, gel electrophoresis, and hybridization analysis of HBV DNA were carried out to identify the inhibitory activity of the compound of the present invention on HBV replication. Herein, untreated cell was used as a control and ddC (dideoxy cytidine) widely known as a therapeutic agent for hepatitis was used as a comparative compound. As a result, it could be seen that the genipin derivative according to the present invention has an excellent inhibitory effect on replication like the known ddC.
Test for identifying the anti HBV effect of the compound of the present invention was carried out according to a known assay method (see, Korba and Milman, Antiviral Res., 15, 217, 1991). The assay procedure is briefly described in the following.
2.2.15. cell was cultured and preserved in RPM 11640 culture medium containing 5% fetal bovine serum(FBS), 2 mM glutamine and 50 μg/ml gentamicin sulfate. Resistance to G418 of the cell culture and degree of Mycoplasma contamination were examined according to conventional methods.
Cells (1×10^4 /cm^2) were inoculated into a multi-well tissue culture plate, confluently cultured for 7 days, and then kept for 2 or 3 days in confluent condition to stabilize the HBV DNA level. Then, culture medium was replaced 24 hours before cells were exposed to test compound. During the treatment of 9 days, culture medium was replaced and then test compound was added to the fresh culture medium at intervals of 24 hours. Culture medium was collected immediately before the first introduction of test compound, and after 3, 6, 9 days, respectively, and stored at -70° C. before HBV DNA analysis. Then, cytolysis was carried out to analyze the intracellular HBV DNA.
To analyze the extracellular HBV DNA, 0.2 ml of culture medium was incubated in 1M NaOH/10×SSC (1×SSC=0.15M NaCl/0.015M sodium citrate, pH 7.2) for 20 minutes at 25° C. and then immediately applied to a nitrocellulose membrane presoaked in 20×SSC using a slot blot apparatus. The sample was washed twice with 0.5 ml of 1M Tris/2M NaCl (pH 7.2) and once with 0.5 ml of 20×SSC to neutralize, and then it was washed again with 2×SSC and heated at 80° C. for one hour under vacuum. Generally, the cells which have been cultured and preserved in a dish having a diameter of 10 cm are dissolved in 6 ml of lysis buffer, and the […] is prepared according to the method of Korba et al., 1991.
10 μg/lane of cellular DNA sample was digested with restriction enzyme Hind III. Then, the digested sample was applied to 1% agarose gel electrophoresis and transferred to a nitrocellulose membrane.
3.2 kb HBV DNA fragment obtained by EcoR 1-digestion and purification was labeled with [^32 P]dCTP using nick translation method. This labeled fragment was used as a hybridization probe. Conditions for hybridization and post-washing were controlled by referring to the method of Korba et al., 1991 and HBV nucleic acid content among test sample was determined by Ambis beta scanner. […]

[2] = Cytotoxicity test (neutral red dye uptake); assay type: cell-based; conditions: human, 2.2.15 cells, A510, 2.2.15 cell, cells treated as in Biological Example 1, read-out: IC50 (cytotoxicity)
Protocol: Further, the present inventors have performed cytotoxicity test using the neutral red dye uptake method to determine that the anti viral effect of the compound of formula (I) […] its general influence on cell growth. As a result, it was identified that the toxicity of the compound of formula (I) is much less than that of ddC.
Cytotoxicity test was carried out in order to determine whether the anti viral effect of the compound according to the present invention is due to the general influence on cell growth or not. In the present experiment, neutral red dye uptake method was used. This is a standard method widely utilized for examining cell survival, by which the variety of relations between viruses such as HSV or HIV and host organism can be understood.
Cytotoxicity test was performed on a 96-well tissue culture plate. Cells were cultured and treated with test compounds in the same manner as Biological Example 1, and the experiments at 4-kind concentrations were repeated threetimes, respectively. Since the relative toxicity can be determined from the uptake level of neutral red dye, quantitative analysis was carried out using the absorbance of internalized dye at 510 nm (A510).
Inhibitory effect of the compound of formula (I) on HBV replication in 2.2.15 cell culture, cytotoxicity, and SI (Selectivity Index, IC50 /ED50)

[3] = cited from earlier work
[4] = test system: HBV replication; conditions: therapeutic agent for hepatitis B; cited from earlier work
[5] = 2.2.15 cell culture, treatment of 9 days

Compound	EC50 [1, 5] [µM]	CC50 [2] [µM]	SI (Selectivity Index, IC50/ED50) [1]	in vivo activities (in words) [3]	inhibition of HBV replication (in words) [4]	EC50 [1] [µM]
CO[C@@H]1OC=C(C=O)[C@H]2CC=C(C=O)[C@@H]12 [Compound 1, (1R,4aS,7aS)-4,7-diformyl-1-metboxy-1,4a,5,7a-tetrahydrocyclopenta-[c]pyran]	> 500	120	–	–	–	–
COc1ccc(COCC2=CO[C@@H](OC)[C@@H]3C(C=NO)=CC[C@H]23)cc1 [Compound 2, (1R,4aS,7aS)-7-hydroxyiminomethyl-1-methoxy-4-(p-methoxybenzyloxymethyl)-1,4a,5,7a-tetrahydrocyclopenta[c]pyran]	30	90	3.0	–	–	–
COC(=O)C1=CO[C@@H](OC(=O)c2ccncc2)[C@@H]2C(COC(=O)c3ccncc3)=CC[C@H]12 [Compound 11, Methyl (1S,4aS,7aS)-1-isonicotinoyloxy-7-isonicotinoyloxymethyl-1,4a,5,7a-tetrahydrocyclopenta[c]pyran4-carboxylate]	30	> 200	> 6.7	–	–	–
COC(=O)C1=CO[C@@H](OCc2ccccc2)[C@@H]2C(C=O)=CC[C@H]12 [Compound 13, Methyl (1R,4aS,7aS)-1-benzyloxy-7-formyl-1,4a,5,7a-tetrahydrocyclopenta[c]pyran-4-carboxylate]	20	50	2.5	–	–	–
COC(=O)C1=CO[C@@H](OCc2ccccc2)[C@@H]2C(C=NO)=CC[C@H]12 [Compound 14, Methyl (1R,4aS,7aS)-1-benzyloxy-7-hydroxyiminomethyl-1,4a,5,7a-tetrahydrocyclopenta[c]pyran-4-carboxylate]	15	130	8.7	–	–	–
OCC1=C[C@@H](O)[C@@H]2C=CO[C@@H](O[C@@H]3O[C@H](CO)[C@@H](O)[C@H](O)[C@H]3O)[C@H]12 [aucubin]	–	–	–	liver-protection, inhibition of biosynthesis of RNA and protein, detoxification as well as antiviral activity	inhibit the HBV replication	–
Nc1ccn([C@H]2CC[C@@H](CO)O2)c(=O)n1 [ddC, dideoxy cytidine, reference compound]	–	> 30	> 2.0	–	–	15
COC(=O)C1=CO[C@@H](O)[C@@H]2C(CO)=CC[C@H]12 [genipin]	–	–	–	liver-protection, inhibition of biosynthesis of RNA and protein, detoxification as well as antiviral activity	inhibit the HBV replication	–
